Data: article PMC6254154 (Molecules, 2009)

Experiments:
LAAO of CR venom = molecular target: T1, LAAO of CR venom (Calloselasma rhodostoma, UniProt P81382); assay: Inhibition of LAAO activity of CR venom (enzyme-coupled assay); type: biochemical; details: CR venom 50 µg; pre-incubated 1 h at 37 °C; mean ± S.E.M. (n = 2)
T1 construct: from tissue; host or cells: crude snake venom (CR)
Procedure: (§1) LAAO activity of CR and NK venoms was determined by using an enzyme-coupled assay. The assay mixture contained 0.025 mL 0.014% peroxidase and 0.2 M triethanolamine buffer (1 mL, pH 7.6) that contained 0.1% L-leucine and 0.0065% o-dianisidine. After incubation at 25 °C for 3 min, 0.1 mL CR or NK venom in PBS (1 mg/mL) was added, and an increase in absorbance at 436 nm (Shimadzu UV-VIS spectrophotometer UV-160A) was measured against blank. Enzymatic activity was calculated from the linear portion of the time–absorbance plot, where one unit of enzymatic activity was defined as the amount of enzyme that caused an increase of 0.001 absorbance units per minute. The percent inhibition of LAAO activity by MSKE and its isolated phenolic principles was evaluated by pre-incubating CR or NK venom (0.1 mL, 1 mg/mL) with test sample in sterile water for injection (SWI) (0.1 mL) for 1 h at 37 °C. After pre-incubation, the mixture was centrifuged at 10,000 rpm for 5 min, and supernatant (0.1 mL) was evaluated for LAAO activity. Venoms, test sample, and solvents alone were used as controls. The anti-LAAO potential of the extract and its phenolic principles was presented as percent inhibition of the enzymatic activity versus dose. ED50, the effective dose that LAAO activity of the venoms was reduced by 50%, was calculated.

[1] = system: hyaluronidase of NK venom; assay: Inhibition of hyaluronidase activity of NK venom (turbidimetric); type: biochemical, Naja naja kaouthia; details: NK venom 250 µg; pre-incubated 30 min at 37 °C; mean ± S.E.M. (n = 2)
Procedure: (§2) Hyaluronidase activity was determined according to the methods of Ferrante and Yingprasertchai et al. with slight modification. CR or NK venom (25-1,000 µg) in PBS (pH 7.4) was incubated with hyaluronic acid (50 μg) in 0.2 M sodium acetate buffer (1 mL, pH 5) that contained 0.15 M NaCl for 25 min at 37 °C. The reaction was stopped by adding 2.5% cetyltrimethylammonium bromide in 2% NaOH (2 mL). The optical density at 400 nm of each sample was read after 30 min with a Shimadzu UV-VIS spectrophotometer UV-160A against blank. Turbidity-reducing activity was expressed as the percentage of the remaining hyaluronic acid, taking the absorbance of a tube to which no enzyme was added as 100%. The venom concentration that produced a reduction in turbidity of ~50% was used in inhibition experiments. […] Blanks containing only the buffer and test sample were run in parallel. The anti-hyaluronidase potential of the extract and its phenolic principles was presented as percent inhibition of the enzymatic activity versus dose. ED50, the effective dose that hyaluronidase activity of the venoms was reduced by 50%, was calculated.

LAAO of NK venom = assay: Inhibition of LAAO activity of NK venom (enzyme-coupled assay); type: biochemical, Naja naja kaouthia; details: NK venom 50 µg; pre-incubated 1 h at 37 °C; mean ± S.E.M. (n = 2)
Procedure: as §1

[2] = system: hyaluronidase of CR venom; assay: Inhibition of hyaluronidase activity of CR venom (turbidimetric); type: biochemical, Calloselasma rhodostoma; details: CR venom 250 µg; pre-incubated 30 min at 37 °C; mean ± S.E.M. (n = 2)
Procedure: as §2

PLA2 of NK venom = assay: Inhibition of PLA2 activity of NK venom (indirect hemolytic assay on agarose-erythrocyte-egg yolk gel plates); type: biochemical, Naja naja kaouthia; details: NK venom 3.4 µg (one MIHD); pre-incubated 1 h at 37 °C; mean ± S.E.M. (n = 2)
Procedure: (§3) PLA2 activity in CR and NK venoms was measured using an indirect hemolytic assay on agarose-erythrocyte-egg yolk gel plates to define the minimum indirect hemolytic dose (MIHD), the dose of venom that induced a hemolysis halo of 20 mm diameter after incubation for 20 h at 37 °C. The inhibition of PLA2 activity by MSKE and its isolated phenolic principles was determined against one MIHD of CR and NK venoms. Test solutions and the venoms (0.05 mL each) were pre-incubated for 1 h at 37 °C. After centrifugation at 10,000 rpm for 10 min, the supernatant (20 µL) was tested for PLA2 activity. The anti-PLA2 potential of the extract and its phenolic principles was presented as percent inhibition of the enzymatic activity versus dose, in which 100% inhibition should produce no clear zone. ED50, the effective dose that PLA2 activity of the venoms was reduced by 50%, was calculated.

PLA2 of CR venom = assay: Inhibition of PLA2 activity of CR venom (indirect hemolytic assay on agarose-erythrocyte-egg yolk gel plates); type: biochemical, Calloselasma rhodostoma; details: CR venom 17.1 µg (one MIHD); pre-incubated 1 h at 37 °C; mean ± S.E.M. (n = 2)
Procedure: as §3

T1 sequence (P81382 19-516): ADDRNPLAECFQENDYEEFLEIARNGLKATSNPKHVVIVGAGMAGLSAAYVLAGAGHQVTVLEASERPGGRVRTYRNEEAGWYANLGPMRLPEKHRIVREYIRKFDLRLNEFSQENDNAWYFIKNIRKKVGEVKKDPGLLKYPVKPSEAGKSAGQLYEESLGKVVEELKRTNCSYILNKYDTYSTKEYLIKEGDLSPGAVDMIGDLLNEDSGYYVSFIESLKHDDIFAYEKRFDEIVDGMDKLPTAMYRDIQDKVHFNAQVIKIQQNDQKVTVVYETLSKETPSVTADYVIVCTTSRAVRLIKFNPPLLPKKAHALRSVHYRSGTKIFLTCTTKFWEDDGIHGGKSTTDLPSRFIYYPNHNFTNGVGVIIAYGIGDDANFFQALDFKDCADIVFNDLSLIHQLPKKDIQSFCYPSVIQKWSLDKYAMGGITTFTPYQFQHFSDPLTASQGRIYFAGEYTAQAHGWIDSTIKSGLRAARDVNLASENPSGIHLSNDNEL

SMILES | LAAO (ED50, µg) CR venom (LAAO of CR venom) | Hyaluronidase (ED50, µg) NK venom [1] | LAAO (ED50, µg) NK venom (LAAO of NK venom) | Hyaluronidase (ED50, µg) CR venom [2] | PLA2 (ED50, µg) NK venom (PLA2 of NK venom) | PLA2 (ED50, µg) CR venom (PLA2 of CR venom)
O=C(O)c1cc(O)c(O)c(O)c1 [GA, gallic acid] | 1.7 ± 3.4 µg | 14.8 ± 1.4 µg | 4.5 ± 2.8 µg | 16.0 ± 2.5 µg | 123.5 ± 2.5 µg | 66.0 ± 2.5 µg
COC(=O)c1cc(O)c(O)c(O)c1 [MG, methyl gallate] | 2.3 ± 2.4 µg | 8.6 ± 2.1 µg | 4.4 ± 2.0 µg | 5.9 ± 2.4 µg | 108.7 ± 2.0 µg | 42.9 ± 2.3 µg
O=C(OC[C@H]1O[C@@H](OC(=O)c2cc(O)c(O)c(O)c2)[C@H](OC(=O)c2cc(O)c(O)c(O)c2)[C@@H](OC(=O)c2cc(O)c(O)c(O)c2)[C@@H]1OC(=O)c1cc(O)c(O)c(O)c1)c1cc(O)c(O)c(O)c1 [PGG, 1,2,3,4,6-penta-O-galloyl-β-D-glucopyranose] | 0.9 ± 2.4 µg | 2.6 ± 1.7 µg | 2.2 ± 2.0 µg | 3.4 ± 2.4 µg | 30.2 ± 2.4 µg | 25.6 ± 1.3 µg
